Test in all cases: Antibacterial assay, microtitration MIC (Test A)
Type in all cases: cell-based

Experiment [1] relates to E. faecalis MGH-2. The following applies: strain MGH-2; for MIC: Enterococcus faecalis, MGH2, Gram Positive Bacteria, read-out: Minimum Inhibitory Concentrations E. faecalis MGH-2; for Minimum Inhibitory Concentrations E. faecalis MGH-2: Gram Positive Bacteria. In a few lines:
(§1)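 Growth inhibition of Gram-positive and Gram-negative isolates was assessed by microtitration; values reported are MICs.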

Experiment [2] relates to S pyogenes C203. The following applies: Gram Positive Bacteria, strain C203; for MIC: read-out: Minimum Inhibitory Concentrations S pyogenes C203. In a few lines:
as §1

In experiment [3] the test system is S. aureus UC-76. The following applies: strain UC-76; for MIC: Staphylococcus aureus, UC76, Gram Positive Bacteria, read-out: Minimum Inhibitory Concentrations S. aureus UC-76. In a few lines:
as §1

Experiment [4] concerns S. pneumo SV-1. The following applies: Gram Positive Bacteria, strain SV-1; for MIC: read-out: Minimum Inhibitory Concentrations S. pneumo SV-1. In a few lines: as §1

SMILES strings stand for the structures. In brackets after ≈: the same amount, converted by molar mass.

Consider `O=C(O)c1cn(C2CC2)c2c(Cl)c(N3C[C@@H](CO)[C@@H](CO)C3)c(F)cc2c1=O` [drawing 401], for which the MIC was 0.125 mg/L (≈ 0.304 µM) in experiment [1], 0.125 mg/L (≈ 0.304 µM) in experiment [2], 0.004 mg/L (≈ 0.00974 µM) in experiment [3] and 0.125 mg/L (≈ 0.304 µM) in experiment [4].

Consider `Cc1c(N2CC(CO)C3(CC3)C2)c(F)cc2c(=O)c(C(=O)O)cn(C3CC3)c12` (centres unmarked) [drawing 428], for which the MIC came to 0.06 mg/L (≈ 0.155 µM) in experiment [1], 0.06 mg/L (≈ 0.155 µM) in experiment [2], 0.004 mg/L (≈ 0.0104 µM) in experiment [3] and 0.06 mg/L (≈ 0.155 µM) in experiment [4].

For `Cc1c(N2CCC(C(O)C(F)(F)F)C2)c(F)cc2c(=O)c(C(=O)O)cn(C3CC3)c12` (centres unmarked) [drawing 363], in experiment [1], the “Minimum Inhibitory Concentrations E. faecalis MGH-2” value worked out at 0.25 µg/mL. Further, the figures for the MIC in experiment [2], in experiment [3] and in experiment [4] were 0.5 mg/L (≈ 1.17 µM), 0.0015 mg/L (≈ 0.0035 µM) and 0.25 mg/L (≈ 0.584 µM), respectively.

For the compound `Cc1c(N2CCC(C(O)C(F)F)C2)c(F)cc2c(=O)c(C(=O)O)cn(C3CC3)c12` (centres unmarked) [drawing 343], the MIC in experiment [1] is 0.06 mg/L (≈ 0.146 µM); in experiment [2] it was 0.125 mg/L (≈ 0.305 µM); in experiment [3], 0.004 mg/L (≈ 0.00975 µM); in experiment [4], 0.06 mg/L (≈ 0.146 µM).

Take `Cc1c(N2CC(C(O)CO)C3(CC3)C2)c(F)cc2c(=O)c(C(=O)O)cn(C3CC3)c12` (centres unmarked) [drawing 431]: the MIC in experiment [1] amounted to 0.125 mg/L (≈ 0.3 µM); in experiment [2], 0.125 mg/L (≈ 0.3 µM); in experiment [3] it was 0.008 mg/L (≈ 0.0192 µM); in experiment [4], 0.125 mg/L (≈ 0.3 µM).

As to `Cc1c(N2CC(C)(CO)C(C)(CO)C2)c(F)cc2c(=O)c(C(=O)O)cn(C3CC3)c12` (centres unmarked) [drawing 439], in experiment [1], the “Minimum Inhibitory Concentrations E. faecalis MGH-2” value amounted to 0.25 µg/mL. Further, the “Minimum Inhibitory Concentrations S pyogenes C203” value in experiment [2] was determined as 0.25 µg/mL. For the same compound, the “Minimum Inhibitory Concentrations S. aureus UC-76” value in experiment [3] (Gram Positive Bacteria) is 0.15 µg/mL. Further, the “Minimum Inhibitory Concentrations S. pneumo SV-1” value in experiment [4] stood at 0.25 µg/mL.

On to `COc1c(N2CCC(C3(O)CC3)C2)c(F)cc2c(=O)c(C(=O)O)cn(C3CC3)c12` (centres unmarked) [drawing 360], for which the MIC amounted to 0.125 mg/L (≈ 0.311 µM) in experiment [1], 0.25 mg/L (≈ 0.621 µM) in experiment [2], 0.015 mg/L (≈ 0.0373 µM) in experiment [3] and 0.125 mg/L (≈ 0.311 µM) in experiment [4].

Consider `COc1c(N2CCC(CO)(CO)C2)c(F)cc2c(=O)c(C(=O)O)cn(C3CC3)c12` [drawing 377], for which the MIC in experiment [1] amounted to 0.5 mg/L (≈ 1.23 µM); in experiment [2], 0.25 mg/L (≈ 0.615 µM); in experiment [3], 0.06 mg/L (≈ 0.148 µM); in experiment [4], 0.25 mg/L (≈ 0.615 µM).

For the compound `COC[C@@H]1CN(c2c(F)cc3c(=O)c(C(=O)O)cn(C4CC4)c3c2C)C[C@@H]1CO` [drawing 408], the MIC in experiment [1] came out at 0.06 mg/L (≈ 0.148 µM); in experiment [2] it was 0.06 mg/L (≈ 0.148 µM); in experiment [3], 0.004 mg/L (≈ 0.00989 µM); in experiment [4], 0.03 mg/L (≈ 0.0742 µM).

As for `COc1c(N2C[C@H](CO)[C@@H](CO)C2)c(F)cc2c(=O)c(C(=O)O)cn(C3CC3)c12` [drawing 404], the MIC was found to be 0.125 mg/L (≈ 0.308 µM) in experiment [1], 0.125 mg/L (≈ 0.308 µM) in experiment [2], 0.008 mg/L (≈ 0.0197 µM) in experiment [3] and 0.125 mg/L (≈ 0.308 µM) in experiment [4].

As to `Nc1nc(-n2cc(C(=O)O)c(=O)c3cc(F)c(N4C[C@@H](O)[C@@H](O)C4)nc32)c(F)cc1F` [drawing 399], the MIC in experiment [1] turned out to be 0.5 mg/L (≈ 1.14 µM); in experiment [2] it was 0.25 mg/L (≈ 0.572 µM); in experiment [3], 0.125 mg/L (≈ 0.286 µM); in experiment [4], 0.5 mg/L (≈ 1.14 µM).

`CCC(=O)OC[C@@H]1CN(c2c(F)cc3c(=O)c(C(=O)O)cn(C4CC4)c3c2C)C[C@@H]1COC(=O)CC` [drawing 412]: the MIC turned out to be 0.5 mg/L (≈ 0.995 µM) in experiment [1], 0.125 mg/L (≈ 0.249 µM) in experiment [2], 0.03 mg/L (≈ 0.0597 µM) in experiment [3] and 0.06 mg/L (≈ 0.119 µM) in experiment [4].

As for `Cc1c(N2CC3(CO)CCCC3(CO)C2)c(F)cc2c(=O)c(C(=O)O)cn(C3CC3)c12` (centres unmarked) [drawing 463], the MIC in experiment [1] turned out to be 0.125 mg/L (≈ 0.29 µM); in experiment [2], 0.125 mg/L (≈ 0.29 µM); in experiment [3] it was 0.004 mg/L (≈ 0.00929 µM); in experiment [4] it was 0.06 mg/L (≈ 0.139 µM).

With `COCC(O)C1CN(c2c(F)cc3c(=O)c(C(=O)O)cn(C4CC4)c3c2C)CC1(C)C` (centres unmarked) [drawing 435], the MIC in experiment [1] is 0.25 mg/L (≈ 0.578 µM); in experiment [2], 0.5 mg/L (≈ 1.16 µM); in experiment [3], 0.015 mg/L (≈ 0.0347 µM); in experiment [4], 0.25 mg/L (≈ 0.578 µM).

`Cc1c(N2CC(CO)C(C)(C)C2)c(F)cc2c(=O)c(C(=O)O)cn(C3CC3)c12` (centres unmarked) [drawing 427]: the MIC in experiment [1] was 0.06 mg/L (≈ 0.154 µM); in experiment [2], 0.06 mg/L (≈ 0.154 µM); in experiment [3], 0.002 mg/L (≈ 0.00515 µM); in experiment [4], 0.03 mg/L (≈ 0.0772 µM).

For the compound `COc1c(N2C[C@@H]3CC[C@@](O)(CO)[C@@H]3C2)c(F)cc2c(=O)c(C(=O)O)cn(C3CC3)c12` [drawing 460], the MIC in experiment [1] was 0.25 mg/L (≈ 0.578 µM); in experiment [2], 0.5 mg/L (≈ 1.16 µM); in experiment [3], 0.015 mg/L (≈ 0.0347 µM); in experiment [4], 0.25 mg/L (≈ 0.578 µM).

Take `O=C(O)c1cn(C2CC2)c2c(OC(F)F)c(N3CC4CC(O)C(O)C4C3)c(F)cc2c1=O` (centres unmarked) [drawing 459]: the MIC in experiment [1] came out at 0.25 mg/L (≈ 0.55 µM); in experiment [2], 0.5 mg/L (≈ 1.1 µM); in experiment [3] it was 0.008 mg/L (≈ 0.0176 µM); in experiment [4], 0.25 mg/L (≈ 0.55 µM).

The values are drawn from patent US20050107423A1, “Quinolone antibacterial agents” (priority 2003, published 2005).
